{"source": "ChEMBL document CHEMBL1944584", "about": "(Bioorg Med Chem Lett, 2012)", "assay_type_in_all_cases": "cell-based", "key": {"[1]": {"target": "T1, Neuronal acetylcholine receptor; alpha4/beta2 (Homo sapiens) (UniProt P17787+P43681)", "assay": "Binding affinity to human alpha4beta2 nAChR in HEK cells at 78 nM after 2 hrs measured 10 mins post-irradiation by autoradiography in the presence of 160 uM (+/-)-bupropion", "settings": "HEK293, tested as the 125I-labelled form"}, "[2]": {"target": "T2, Sodium-dependent dopamine transporter (Homo sapiens, UniProt Q01959)", "T2 sequence (Q01959 whole entry)": "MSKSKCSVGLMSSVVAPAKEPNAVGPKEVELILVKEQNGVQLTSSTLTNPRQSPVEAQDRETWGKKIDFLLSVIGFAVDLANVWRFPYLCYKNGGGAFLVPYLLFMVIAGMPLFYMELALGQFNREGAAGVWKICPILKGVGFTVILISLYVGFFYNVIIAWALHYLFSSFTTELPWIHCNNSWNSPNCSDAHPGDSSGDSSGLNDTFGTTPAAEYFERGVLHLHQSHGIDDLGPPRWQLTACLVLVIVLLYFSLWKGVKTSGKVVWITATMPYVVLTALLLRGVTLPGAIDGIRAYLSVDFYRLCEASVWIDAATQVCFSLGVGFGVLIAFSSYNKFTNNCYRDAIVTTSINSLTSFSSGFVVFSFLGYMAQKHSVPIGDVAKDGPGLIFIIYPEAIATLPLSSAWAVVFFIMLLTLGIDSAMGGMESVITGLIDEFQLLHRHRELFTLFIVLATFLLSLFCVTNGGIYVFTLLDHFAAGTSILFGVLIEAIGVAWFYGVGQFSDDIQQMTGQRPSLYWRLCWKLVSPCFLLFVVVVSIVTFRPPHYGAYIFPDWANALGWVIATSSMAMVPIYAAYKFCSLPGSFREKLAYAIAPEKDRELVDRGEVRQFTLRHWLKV", "assay": "Binding affinity to human His6-DAT expressed in LLCPK1 cells at 10 nM after 1.5 hrs measured 2 mins post-irradiation by autoradiography in the presence of (+/-)-cocaine", "settings": "LLC-PK1, tested as the 125I-labelled form"}, "[3]": {"target": "T2, Sodium-dependent dopamine transporter", "assay": "Binding affinity to human His6-DAT expressed in LLCPK1 cells at 10 nM after 1.5 hrs measured 2 mins post-irradiation by autoradiography in the presence of (+/-)-bupropion", "settings": "LLC-PK1, tested as the 125I-labelled form"}, "[4]": {"target": "T1, Neuronal acetylcholine receptor; alpha4/beta2 (Homo sapiens)", "assay": "Binding affinity to human alpha4beta2 nAChR in HEK cells at 0.21 nM after 5 hrs by gamma counting in the presence of (+/-)-bupropion", "settings": "HEK293, tested as the 125I-labelled form"}, "[5]": {"target": "T2, Sodium-dependent dopamine transporter", "assay": "Binding affinity to human His6-DAT expressed in LLCPK1 cells at 10 nM after 1.5 hrs measured 2 mins post-irradiation by SDS-PAGE/autoradiography", "settings": "LLC-PK1, tested as the 125I-labelled form"}, "[6]": {"target": "T2, Sodium-dependent dopamine transporter", "assay": "Displacement of [3H]WIN-35,428 from human DAT expressed in N2A cells after 15 mins by photoaffinity labeling"}}, "note": "Activity calls are given as the source filed them. The rule behind the calls is not given here."}
{"smiles": "CC(NC(C)(C)C)C(=O)c1ccc(N=[N+]=[N-])c(I)c1", "note": "(racemic)", "values": [{"measurement": "Activity", "setting": "[1]", "result": "inactive"}, {"measurement": "Activity", "setting": "[2]", "result": "inactive"}, {"measurement": "Activity", "setting": "[3]", "result": "inactive"}, {"measurement": "Activity", "setting": "[4]", "result": "inactive"}, {"measurement": "Activity", "setting": "[5]", "result": "Active"}, {"measurement": "Ki", "setting": "[6]", "result": 3.07, "unit": "µM"}]}
